According to publication PMC12892976, “Alkylation-based optimization of antifungal FPPS inhibitors yields a potent, broad-spectrum lipophilic zoledronate derivative” (mBio, 2025):
Converted amounts (≈) assume the structure as drawn. Read-outs that look alike come from different tables or passages of the source.

Columns and labels:
Cryptococcus neoformans = assay: checkerboard drug interaction (FICI, MICc); type: cell-based; conditions: for INH FD (MIC-MICc fold decrease): fold decrease of inhibitor MIC;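 as to all read-outs here: antifungal plus FPPS inhibitor pairs tested against Cryptococcus neoformans by simplified diagonal checkerboard screening, FICI computed under the Loewe additivity model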
Experimental: (§1) Drug interactions between antifungals and FPPS inhibitors were investigated using a simplified checkerboard diagonal screening method ([45]). […] FICIs were determined according to the Loewe additivity model ([17]).

Scedosporium apiospermum = assay: checkerboard drug interaction (FICI, MICc); type: cell-based;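 also: simplified diagonal checkerboard screen of antifungal plus FPPS inhibitor pairs, with FICI computed under the Loewe additivity model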
Experimental: as §1

Trichophyton rubrum [1] = assay: MIC/MFC broth microdilution (CLSI)
Experimental: (§2) Antifungal susceptibility was determined by broth microdilution according to the CLSI guidelines described in M27-Ed4 ([16]). […] MFC was determined by back-plating drug-treated cultures from MIC broths onto SDA plates. The MFC was defined as the lowest concentration from which no colonies could be cultured.

Aspergillus flavus = assay: checkerboard drug interaction (FICI, MICc); type: cell-based; design: INH MICc (KET:INH) / INH MICc (FLC:INH): unit not given beside the values;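 also: simplified diagonal checkerboard screen pairing azole antifungals with FPPS inhibitors, FICI calculated under the Loewe additivity model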
Candida albicans = assay: MIC/MFC broth microdilution (CLSI); type: cell-based; conditions: Candida albicans SC5314
Experimental: as §2

Trichophyton rubrum [2] = assay: checkerboard drug interaction (FICI, MICc); type: cell-based;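 also: simplified diagonal checkerboard screen pairing azole antifungals with FPPS inhibitors, FICI calculated under the Loewe additivity model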
Experimental: as §1

eight fungal species = assay: MIC/MFC summary across the eight fungal species of Table 1; type: cell-based
Experimental: The antifungal activity of these compounds was evaluated according to CLSI guidelines ([16]).

HEK-293T cells = assay: MTT reduction cytotoxicity assay; type: cell-based; conditions: Homo sapiens
Fusarium oxysporum = assay: checkerboard drug interaction (FICI, MICc); type: cell-based;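 also: simplified diagonal checkerboard screen pairing antifungals with FPPS inhibitors, FICI calculated under the Loewe additivity model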
Experimental: as §1

Candida glabrata = assay: MIC/MFC broth microdilution (CLSI);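 also: broth microdilution following CLSI M27-Ed4, MFC taken as the lowest drug level yielding no growth once MIC wells were subcultured on SDA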
Experimental: as §2

[3] = tested on: Cryptococcus deuterogattii; assay: MIC/MFC broth microdilution (CLSI);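 also: broth microdilution per CLSI M27-Ed4. MFC is the lowest concentration yielding no colonies when MIC broths are subcultured onto SDA plates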
Experimental: as §2

[4] = tested on: Cryptococcus deuterogattii; assay: checkerboard drug interaction (FICI, MICc); type: cell-based; conditions: for INH FD (MIC-MICc fold decrease): fold decrease of inhibitor MIC;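 as to all read-outs here: simplified diagonal checkerboard screen pairing antifungal drugs with FPPS inhibitors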
Experimental: as §1

[5] = C. neoformans, FLC:INH combination
[6] = C. neoformans, ITR:INH combination
[7] = C. neoformans, KET:INH combination
[8] = C. deuterogattii, FLC:INH combination
[9] = C. deuterogattii, ITR:INH combination
[10] = C. deuterogattii, KET:INH combination

Which results are given for `O=P(O)(O)C(O)(Cn1ccnc1)P(=O)(O)O` [ZOL, zoledronate]?
FICI (Cryptococcus neoformans; 5FC:ZOL): 0.75; FICI (Cryptococcus neoformans; AMB:ZOL): 2.25; FICI (Cryptococcus neoformans; [5]): 0.38; INH MICc (Cryptococcus neoformans; C. neoformans, FLC:INH combination, MIC of the inhibitor in combination with FLC): 8; FLC FD (MIC-MICc fold decrease) (Cryptococcus neoformans; C. neoformans, FLC:INH combination, fold decrease of FLC MIC): 4; INH FD (MIC-MICc fold decrease) (Cryptococcus neoformans; [5]): 8; FICI (Cryptococcus neoformans; [6]): 0.19; INH MICc (Cryptococcus neoformans; C. neoformans, ITR:INH combination, MIC of the inhibitor in combination with ITR): 4; ITR FD (MIC-MICc fold decrease) (Cryptococcus neoformans; C. neoformans, ITR:INH combination, fold decrease of ITR MIC): 8; INH FD (MIC-MICc fold decrease) (Cryptococcus neoformans; [6]): 16; FICI (Cryptococcus neoformans; [7]): 0.19; INH MICc (Cryptococcus neoformans; C. neoformans, KET:INH combination, MIC of the inhibitor in combination with KET): 4; KET FD (MIC-MICc fold decrease) (Cryptococcus neoformans; C. neoformans, KET:INH combination, fold decrease of KET MIC): 8; INH FD (MIC-MICc fold decrease) (Cryptococcus neoformans; [7]): 16; FICI (Cryptococcus neoformans; CAS:ZOL): ≥4; FICI (Cryptococcus neoformans; FLC:ZOL): 0.38; FICI (Cryptococcus neoformans; ITR:ZOL): 0.19; FICI (Cryptococcus neoformans; KET:ZOL): 0.19; FICI (Cryptococcus neoformans; VOR:ZOL): 0.98; bisphosphonate MICc (Cryptococcus neoformans; ZOL with 5FC): 16; bisphosphonate MICc (Cryptococcus neoformans; ZOL with AMB): 8; bisphosphonate MICc (Cryptococcus neoformans; ZOL with CAS): 128; bisphosphonate MICc (Cryptococcus neoformans; ZOL with FLC): 8; bisphosphonate MICc (Cryptococcus neoformans; ZOL with ITR): 4; bisphosphonate MICc (Cryptococcus neoformans; ZOL with KET): 4; bisphosphonate MICc (Cryptococcus neoformans; ZOL with VOR): 16; FICI (Cryptococcus neoformans; with FLC, Cryptococcus neoformans): 0.38; FICI (Cryptococcus neoformans; with ITR, Cryptococcus neoformans): 0.19; FICI (Cryptococcus neoformans; with KET, Cryptococcus neoformans): 0.19; FICI (Scedosporium apiospermum; 5FC:ZOL): 3; FICI (Scedosporium apiospermum; AMB:ZOL): 1.5; FICI (Scedosporium apiospermum; CAS:ZOL): ≥4; FICI (Scedosporium apiospermum; FLC:ZOL): 0.63; FICI (Scedosporium apiospermum; ITR:ZOL): 0.56; FICI (Scedosporium apiospermum; KET:ZOL): 0.63; FICI (Scedosporium apiospermum; VOR:ZOL): 1.5; bisphosphonate MICc (Scedosporium apiospermum; ZOL with 5FC): 256; bisphosphonate MICc (Scedosporium apiospermum; ZOL with AMB): 128; bisphosphonate MICc (Scedosporium apiospermum; ZOL with CAS): 512; bisphosphonate MICc (Scedosporium apiospermum; ZOL with FLC): 32; bisphosphonate MICc (Scedosporium apiospermum; ZOL with ITR): 16; bisphosphonate MICc (Scedosporium apiospermum; ZOL with KET): 32; bisphosphonate MICc (Scedosporium apiospermum; ZOL with VOR): 128; MFC (Trichophyton rubrum [1]; Trichophyton rubrum): > 128 µg/mL; MIC (Trichophyton rubrum [1]; Trichophyton rubrum): 128 µg/mL (≈ 470 µM); MIC / MEC (Trichophyton rubrum [1]; Trichophyton rubrum R-218): 128 µg/mL (≈ 470 µM); FICI (Aspergillus flavus; 5FC:ZOL): 2; FICI (FLC:INH) (Aspergillus flavus; A. flavus, Fractional Inhibitory Concentration Index, fluconazole + inhibitor): 0.63; FICI (ITR:INH) (Aspergillus flavus; A. flavus, Fractional Inhibitory Concentration Index, itraconazole + inhibitor): 1.13; FICI (KET:INH) (Aspergillus flavus; A. flavus, Fractional Inhibitory Concentration Index, ketoconazole + inhibitor): 1.5; INH MICc (FLC:INH) (Aspergillus flavus; A. flavus, MIC of the inhibitor in combination with fluconazole): 32; INH MICc (ITR:INH) (Aspergillus flavus; A. flavus, MIC of the inhibitor in combination with itraconazole): 32; INH MICc (KET:INH) (Aspergillus flavus; A. flavus, MIC of the inhibitor in combination with ketoconazole): 128; FLC FD (FLC:INH) (Aspergillus flavus; A. flavus, MIC-MICc fold decrease of fluconazole, negative = increase): 2; ITR FD (ITR:INH) (Aspergillus flavus; A. flavus, MIC-MICc fold decrease of itraconazole, negative = increase): 1; KET FD (KET:INH) (Aspergillus flavus; A. flavus, MIC-MICc fold decrease of ketoconazole, negative = increase): 1; INH FD (FLC:INH) (Aspergillus flavus; A. flavus, MIC-MICc fold decrease of the inhibitor, with fluconazole): 8; INH FD (ITR:INH) (Aspergillus flavus; A. flavus, MIC-MICc fold decrease of the inhibitor, with itraconazole): 8; INH FD (KET:INH) (Aspergillus flavus; A. flavus, MIC-MICc fold decrease of the inhibitor, with ketoconazole): 2; FICI (Aspergillus flavus; AMB:ZOL): 0.63; FICI (Aspergillus flavus; CAS:ZOL): 1; FICI (Aspergillus flavus; FLC:ZOL): 0.56; FICI (Aspergillus flavus; ITR:ZOL): 1.06; FICI (Aspergillus flavus; KET:ZOL): 1.25; FICI (Aspergillus flavus; VOR:ZOL): 1; bisphosphonate MICc (Aspergillus flavus; ZOL with 5FC): 512; bisphosphonate MICc (Aspergillus flavus; ZOL with AMB): 64; bisphosphonate MICc (Aspergillus flavus; ZOL with CAS): 256; bisphosphonate MICc (Aspergillus flavus; ZOL with FLC): 32; bisphosphonate MICc (Aspergillus flavus; ZOL with ITR): 32; bisphosphonate MICc (Aspergillus flavus; ZOL with KET): 128; bisphosphonate MICc (Aspergillus flavus; ZOL with VOR): 256; FICI (Aspergillus flavus; with FLC, Aspergillus flavus): 0.63; FICI (Aspergillus flavus; with ITR, Aspergillus flavus): 1.13; FICI (Aspergillus flavus; with KET, Aspergillus flavus): 1.50; MFC (Candida albicans): > 128 µg/mL; MIC (Candida albicans): 128 µg/mL (≈ 470 µM); MIC / MEC (Candida albicans): 128 µg/mL (≈ 470 µM); FICI (Trichophyton rubrum [2]; 5FC:ZOL): 2; FICI (Trichophyton rubrum [2]; AMB:ZOL): ≥4; FICI (Trichophyton rubrum [2]; CAS:ZOL): 0.5; FICI (Trichophyton rubrum [2]; FLC:ZOL): 0.5; FICI (Trichophyton rubrum [2]; ITR:ZOL): 0.75; FICI (Trichophyton rubrum [2]; KET:ZOL): 0.38; FICI (FLC:INH) (Trichophyton rubrum [2]; T. rubrum, Fractional Inhibitory Concentration Index, fluconazole + inhibitor): 0.5; FICI (ITR:INH) (Trichophyton rubrum [2]; T. rubrum, Fractional Inhibitory Concentration Index, itraconazole + inhibitor): 0.75; FICI (KET:INH) (Trichophyton rubrum [2]; T. rubrum, Fractional Inhibitory Concentration Index, ketoconazole + inhibitor): 0.38; INH MICc (FLC:INH) (Trichophyton rubrum [2]; T. rubrum, MIC of the inhibitor in combination with fluconazole): 32; INH MICc (ITR:INH) (Trichophyton rubrum [2]; T. rubrum, MIC of the inhibitor in combination with itraconazole): 64; INH MICc (KET:INH) (Trichophyton rubrum [2]; T. rubrum, MIC of the inhibitor in combination with ketoconazole): 16; FLC FD (FLC:INH) (Trichophyton rubrum [2]; T. rubrum, MIC-MICc fold decrease of fluconazole, negative = increase): 4; ITR FD (ITR:INH) (Trichophyton rubrum [2]; T. rubrum, MIC-MICc fold decrease of itraconazole, negative = increase): 4; KET FD (KET:INH) (Trichophyton rubrum [2]; T. rubrum, MIC-MICc fold decrease of ketoconazole, negative = increase): 4; INH FD (FLC:INH) (Trichophyton rubrum [2]; T. rubrum, MIC-MICc fold decrease of the inhibitor, with fluconazole): 4; INH FD (ITR:INH) (Trichophyton rubrum [2]; T. rubrum, MIC-MICc fold decrease of the inhibitor, with itraconazole): 2; INH FD (KET:INH) (Trichophyton rubrum [2]; T. rubrum, MIC-MICc fold decrease of the inhibitor, with ketoconazole): 8; FICI (Trichophyton rubrum [2]; VOR:ZOL): 0.38; bisphosphonate MICc (Trichophyton rubrum [2]; ZOL with 5FC): 128; bisphosphonate MICc (Trichophyton rubrum [2]; ZOL with AMB): 256; bisphosphonate MICc (Trichophyton rubrum [2]; ZOL with CAS): 32; bisphosphonate MICc (Trichophyton rubrum [2]; ZOL with FLC): 32; bisphosphonate MICc (Trichophyton rubrum [2]; ZOL with ITR): 64; bisphosphonate MICc (Trichophyton rubrum [2]; ZOL with KET): 16; bisphosphonate MICc (Trichophyton rubrum [2]; ZOL with VOR): 16; FICI (Trichophyton rubrum [2]; with ITR, Trichophyton rubrum): 0.75; Geometric mean MFC (eight fungal species; across eight species): 181.0 µg/mL; Geometric mean MIC (eight fungal species; across eight species): 98.7 µg/mL; MFC (eight fungal species; across eight species, read-out: Geometric mean MFC): 181 µg/mL (≈ 665 µM); MIC (eight fungal species; geometric mean across eight species, read-out: GM fungal MIC): 98.7 µg/mL (≈ 363 µM); MIC (eight fungal species; read-out: Geometric mean MIC): 98.7 µg/mL (≈ 363 µM); IC50 (HEK-293T cells; HEK-293T, read-out: HEK IC50): > 256 µg/mL; IC50 (HEK-293T cells; HEK-293T cells, projected value, read-out: predicted IC50): > 256 µg/mL; FICI (Fusarium oxysporum; 5FC:ZOL): ≥4; FICI (Fusarium oxysporum; AMB:ZOL): 0.63; FICI (Fusarium oxysporum; CAS:ZOL): 2.5; FICI (Fusarium oxysporum; FLC:ZOL): 0.75; FICI (Fusarium oxysporum; ITR:ZOL): 0.5; FICI (Fusarium oxysporum; KET:ZOL): 0.75; FICI (Fusarium oxysporum; VOR:ZOL): 1.02; bisphosphonate MICc (Fusarium oxysporum; ZOL with 5FC): 256; bisphosphonate MICc (Fusarium oxysporum; ZOL with AMB): 64; bisphosphonate MICc (Fusarium oxysporum; ZOL with CAS): 256; bisphosphonate MICc (Fusarium oxysporum; ZOL with FLC): 256; bisphosphonate MICc (Fusarium oxysporum; ZOL with ITR): 128; bisphosphonate MICc (Fusarium oxysporum; ZOL with KET): 256; bisphosphonate MICc (Fusarium oxysporum; ZOL with VOR): 8; MIC / MEC (Candida glabrata; Candida glabrata CBS138 (ATCC 2001)): 8 µg/mL (≈ 29.4 µM); MFC (Candida glabrata; Nakaseomyces glabratus, CBS138): 32 µg/mL (≈ 118 µM); MIC (Candida glabrata; Nakaseomyces glabratus, CBS138): 8 µg/mL (≈ 29.4 µM); MFC ([3]; Cryptococcus deuterogattii): 128 µg/mL (≈ 470 µM); MIC ([3]; Cryptococcus deuterogattii): 128 µg/mL (≈ 470 µM); MIC / MEC ([3]; Cryptococcus deuterogattii R265): 128 µg/mL (≈ 470 µM); FICI ([4]; 5FC:ZOL): 1.02; FICI ([4]; AMB:ZOL): 2; FICI [4, 8]: 0.25; INH MICc ([4]; C. deuterogattii, FLC:INH combination, MIC of the inhibitor in combination with FLC): 8; FLC FD (MIC-MICc fold decrease) ([4]; C. deuterogattii, FLC:INH combination, fold decrease of FLC MIC): 8; INH FD (MIC-MICc fold decrease) [4, 8]: 8; FICI [4, 9]: 0.38; INH MICc ([4]; C. deuterogattii, ITR:INH combination, MIC of the inhibitor in combination with ITR): 8; ITR FD (MIC-MICc fold decrease) ([4]; C. deuterogattii, ITR:INH combination, fold decrease of ITR MIC): 4; INH FD (MIC-MICc fold decrease) [4, 9]: 8; FICI [4, 10]: 0.31; INH MICc ([4]; C. deuterogattii, KET:INH combination, MIC of the inhibitor in combination with KET): 16; KET FD (MIC-MICc fold decrease) ([4]; C. deuterogattii, KET:INH combination, fold decrease of KET MIC): 16; INH FD (MIC-MICc fold decrease) [4, 10]: 4; FICI ([4]; CAS:ZOL): 1.5; FICI ([4]; FLC:ZOL): 0.25; FICI ([4]; ITR:ZOL): 0.38
